Results published in patent US8821568B2, “Implant modified with non-hydroxylated vitamin D precursors” (Numat Biomedical S.L., priority 2008, dated 2014).
Entries after “also recorded” stand apart in the source; their conditions may differ.

Experiments:
MC3T3-E1 cells [1] = experiment: Real-time RT-PCR of osteoblast differentiation markers, coated titanium implants; format: cell-based, mouse; conditions: Ti implants, 48 h
Experimental: To test the effect of the surface modification, 96-well plates were used. Ti disks were placed into the wells and treatments and UV-activation were performed over there. Cells grown onto untreated polystyrene tissue culture plastic (TCP) were added as a control for all the experiments. Cells were seeded at a density of 30,000 cells/cm^2 and they were maintained in α-MEM supplemented with 10% FCS and antibiotics. Culture media was collected after 48 hours, to test cytotoxicity and the production of the hydroxylated form of vitamin D, 25-D3. Cells were harvested after two days of culture using Trizol reagent (Roche Diagnostics, Mannheim, Germany), to analyze gene expression of several osteoblast differentiation markers and enzymes involved in vitamin D synthesis using real-time RT-PCR. On the other hand, MC3T3-E1 cells were harvested after 21 days to measure calcium content and ALP activity in the cell monolayer.
(§1) RNA was isolated from cells using a monophasic solution of phenol and guanidine thiocyanate (Trizol, Roche Diagnostics, Mannheim, Germany) according to the manufacturer's protocol. RNA was quantified at 260 nm using a Nanodrop spectrophotometer (NanoDrop Technologies, Wilmington, Del., USA).
(§2) Total RNA previously isolated was reverse-transcribed to cDNA using High Capacity RNA to cDNA kit (Applied Biosystems, Foster City, Calif.) according to the protocol of the supplier. The same amount of total RNA from each sample was converted into cDNA. Each cDNA was diluted ¼ and aliquots were stored at −20° C. until the PCR reactions were carried out.
Real-time RT-PCR was performed for two reference genes: 18S ribosomal RNA (18S rRNA), glyceraldehyde-3-phosphate dehydrogenase (GAPDH); and eleven target genes: alkaline phosphathase (ALP), Interleukin 6 (IL-6), Collagen (Coll-1), Osteocalcin (OC), Bone Morphogenetic Protein 2 (BMP-2), Osterix (Osx), Receptor activator of nuclear factor kappa-B ligand (RANKL), Osteoprogesterin (OPG) and genes involved in vitamin D synthesis such as Vitamin D3 25-hydroxylase (CYP27A1) and 25 hydroxyvitamin D3-1-alpha hydroxylase (CYP27B1). Real-time PCR were performed in the Lightcycler 480® (Roche Diagnostics, Germany). Each reaction contained 5 μl of LightCycler-FastStart DNA Master^PLUS SYBR Green I (Roche Diagnostics, Mannheim, Germany), 0.5 μM of the sense and antisense specific primers (Table 1) and 3 μl of the cDNA dilution in a final volume of 10 μl. The normal amplification program consisted of a preincubation step for denaturation of the template cDNA (10 min 95° C.), followed by 45 cycles consisting of a denaturation step (10 s 95° C.), an annealing step (10 s 60° C., except for ALP that was 10 s at 65° C., OSX with 10 s at 68° C.) and an extension step (10 s 72° C.). After each cycle, fluorescence was measured at 72° C. Every run included a negative control without cDNA template. To confirm amplification specificity, PCR products were subjected to a melting curve analysis on the LightCycler and subsequently 2% agarose/TAE gel electrophoresis, Tm and amplicon size, respectively.
To allow relative quantification after PCR, real-time efficiencies were calculated from the given slopes in the LightCycler 480 software (Roche Diagnostics, Mannheim, Germany) using serial dilutions. Relative quantification after PCR was calculated by normalizing target gene concentration in each sample by the concentration mean of the two reference genes in given sample using the Advanced relative quantification method provided by the LightCycler 480 analysis software.

MC3T3-E1 cells [2] = experiment: Real-time RT-PCR of vitamin D hydroxylation/degradation enzymes (CYP27A1, CYP27B1, CYP24A1), plastic wells; format: cell-based, mouse; conditions: TCP, 2 days
Experimental: To test the effect of the different treatments onto the plastic wells, 96-well plates made of polystyrene were used and the treatments with 7-DHC performed directly onto them. Cells grown onto untreated TCP were added as a control for all the experiments. Cells were seeded at a density of 30,000 cells/cm^2 and they were maintained in α-MEM supplemented with 10% FCS and antibiotics. Culture media was collected after 48 hours, to test cytotoxicity and the production of the hydroxylated forms of vitamin D. Cells were harvested after 2 days of culture using Trizol reagent (Roche Diagnostics, Mannheim, Germany), to analyse early gene expression response of several osteoblast differentiation markers and enzymes involved in vitamin D synthesis using real-time RT-PCR.
as §1, §2
Real-time RT-PCR was performed for two reference genes: 18S ribosomal RNA (18S rRNA), glyceraldehyde-3-phosphate dehydrogenase (GAPDH), and 11 target genes alkaline phospathase (ALP), Interleukin 6 (IL-6), Collagen (Coll-1), Osteocalcin (OC), Bone Morphogenetic Protein 2 (BMP-2), Osterix (Osx), Receptor activator of nuclear factor kappa-B ligand (RANKL), Osteoprogesterin (OPG) and genes involved in vitamin D synthesis such as Vitamin D3 25-hydroxylase (CYP27A1), 25 hydroxyvitamin D3-1-alpha hydroxylase (CYP27B1) and 1,25-dihydroxyvitamin D3 24-hydroxylase (CYP24A1).
Real-time PCR were performed in the Lightcycler 480® (Roche Diagnostics, Germany). […] After each cycle, fluorescence was measured at 72° C. […]
To allow relative quantification after PCR, real-time efficiencies were calculated from the given slopes in the LightCycler 480 software (Roche Diagnostics, Mannheim, Germany) using serial dilutions. Relative quantification after PCR was calculated by normalizing target gene concentration in each sample by the concentration mean of the two reference genes in given sample using the “advanced relative quantification method” provided by the LightCycler 480 analysis software.

SMILES: CC(C)CCC[C@@H](C)[C@H]1CC[C@H]2C3=CC=C4C[C@@H](O)CC[C@]4(C)[C@H]3CC[C@]12C [7-DHC, 7-dehydrocholesterol]
- RANKL mRNA expression (MC3T3-E1 cells [1]; 2×10^−2 nmols and 0.2 nmols, UV 15 minutes vs UV-untreated): significant decrease
- RANKL mRNA levels (MC3T3-E1 cells [1]; 10 minutes UV-exposed, compared to ethanol): statistical significant increase
- OPG mRNA levels (MC3T3-E1 cells [1]; 30 min UV-exposed): decrease
- RANKL mRNA levels (MC3T3-E1 cells [1]; 30 minutes UV-exposed): significant decrease
- ALP mRNA levels (MC3T3-E1 cells [1]; UV irradiated vs ethanol and UV-treated groups, significant at 30 minutes): higher ALP mRNA levels
- OC mRNA levels (MC3T3-E1 cells [1]; UV-exposed for 15 min): tendency to increased OC mRNA levels
- RANKL gene expression (MC3T3-E1 cells [1]; all UV-treated groups (2×10^−2, 0.2, 2 nmols; 15 minutes) compared to control): Statistical significances; also recorded: significantly reduced
- OSX mRNA levels (MC3T3-E1 cells [1]; between all the groups, only significant at 10 minutes of UV exposure): very similar
- BMP-2 mRNA levels (MC3T3-E1 cells [1]; when exposed to UV): No statistical differences
- IL-6 mRNA levels (MC3T3-E1 cells [1]; when exposed to UV): No statistical differences
- Collagen type-1 gene expression (MC3T3-E1 cells [1]; with UV exposure time, significant at 15 and 30 minutes): trend to decrease
- CYP27B1 mRNA levels (MC3T3-E1 cells [2]; UV-irradiated, higher concentrated samples, significance was not reached): increase in mRNA levels
- CYP27A1 mRNA levels (MC3T3-E1 cells [2]; UV-treated doses above the lowest, vs UV-untreated corresponding doses): dose-response increase
